Measured values published in ChEMBL document CHEMBL1201862, “PubChem BioAssay data set” (2004).
Activity calls are given as the source filed them.

Legend:
[1] = target: T1, Aryl hydrocarbon receptor (Homo sapiens, UniProt P35869); experiment: Luminescence-based cell-based high throughput dose response assay for activators of the Aryl Hydrocarbon Receptor (AHR). [Related pubchem assays: 2796 (Primary screen (AHR activators in singlicate)), 2845 (Confirmation screen (AHR activators in triplicate)), 434939 (Counterscreen (PXR activators in triplicate)), 2804 (Summary (AHR activators))]; type: ADME
T1 sequence (P35869 whole entry): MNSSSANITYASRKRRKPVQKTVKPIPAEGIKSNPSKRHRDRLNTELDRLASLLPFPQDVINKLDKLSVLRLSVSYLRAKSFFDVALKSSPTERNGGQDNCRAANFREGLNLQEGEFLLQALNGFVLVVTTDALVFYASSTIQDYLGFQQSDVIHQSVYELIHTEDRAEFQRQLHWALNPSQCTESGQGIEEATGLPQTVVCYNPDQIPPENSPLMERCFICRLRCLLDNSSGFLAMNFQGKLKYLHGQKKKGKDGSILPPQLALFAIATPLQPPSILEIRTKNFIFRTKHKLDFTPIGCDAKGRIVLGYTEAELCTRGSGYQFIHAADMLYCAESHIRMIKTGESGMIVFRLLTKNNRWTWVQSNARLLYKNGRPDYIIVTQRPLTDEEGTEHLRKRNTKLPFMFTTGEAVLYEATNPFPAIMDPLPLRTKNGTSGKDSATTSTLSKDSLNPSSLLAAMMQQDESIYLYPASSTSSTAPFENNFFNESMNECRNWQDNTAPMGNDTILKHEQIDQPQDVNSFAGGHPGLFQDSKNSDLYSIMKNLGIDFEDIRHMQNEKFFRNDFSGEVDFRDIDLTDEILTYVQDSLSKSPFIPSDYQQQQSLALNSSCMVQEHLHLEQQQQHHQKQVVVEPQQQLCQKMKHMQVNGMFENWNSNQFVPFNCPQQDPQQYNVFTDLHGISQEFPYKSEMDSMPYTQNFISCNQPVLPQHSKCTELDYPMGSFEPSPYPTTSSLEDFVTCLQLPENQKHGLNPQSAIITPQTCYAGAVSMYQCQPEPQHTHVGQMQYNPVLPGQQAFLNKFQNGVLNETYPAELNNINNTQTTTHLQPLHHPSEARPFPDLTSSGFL

[2] = target: Sphingosine 1-phosphate receptor 2 (Homo sapiens, UniProt O95136); experiment: Dose Response Cell Based Assay for Antagonists of the S1P2 Receptor. [Related pubchem assays: 856, 736 ]; type: functional
[3] = target: E3 ubiquitin-protein ligase Mdm2 (Homo sapiens, UniProt Q00987); experiment: enhancers of MDM2-luciferase reporter signal, concentration-effect titration, project on inhibitors of MDM2 ubiquitin ligase, cellular assay, luminescent readout, 384-well plate format (AID 1394); type: functional;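 further: MDM2 E3 inhibitors raise luminescence so EC50 is for signal enhancement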
[4] = Luminescence Cell-Based Dose Response HTS to Identify Activators of Luciferase Translation or Activity in H4 […] Cells. [Related pubchem assays: 1829 (Project Summary), 1814 (Primary HTS)]; type: functional
H4 = experiment: Luminescence Cell-Based Dose Response HTS to Identify Activators of 5'UTR Stem-Loop Driven Prion Protein mRNA Translation in H4 Neuroglioblastoma Cells. [Related pubchem assays: 1829 (Project Summary), 1814 (Primary HTS)]; type: functional; conditions: Homo sapiens
[5] = Luminescence Cell-Based Dose Response to Identify Activators of Luciferase Translation or Activity in H4-C Neuroglioblastoma Cells. [Related pubchem assays: 1829 (Project Summary), 1814 (Primary HTS)]; type: functional
[6] = Luminescence Cell-Based Dose Confirmation to Identify Activators of 5'UTR Stem-Loop Driven Alpha-Synuclein mRNA Translation in H4 Neuroglioblastoma Cells. [Related pubchem assays: 1829 (Project Summary), 1814 (Primary HTS)]; type: functional
[7] = Luminescence Cell-Based Dose Response to Identify Activators of 5'UTR Stem-Loop Driven Prion Protein mRNA Translation in H4-C Neuroglioblastoma Cells. [Related pubchem assays: 1829 (Project Summary), 1814 (Primary HTS)]; type: functional
[8] = target: T2, Mannose-6-phosphate isomerase (Homo sapiens, UniProt P34949); experiment: human PMI inhibitors, high substrate, primary screen, biochemical, fluorescence intensity, high mannose 6-phosphate (AID 1220)
T2 sequence (P34949 whole entry): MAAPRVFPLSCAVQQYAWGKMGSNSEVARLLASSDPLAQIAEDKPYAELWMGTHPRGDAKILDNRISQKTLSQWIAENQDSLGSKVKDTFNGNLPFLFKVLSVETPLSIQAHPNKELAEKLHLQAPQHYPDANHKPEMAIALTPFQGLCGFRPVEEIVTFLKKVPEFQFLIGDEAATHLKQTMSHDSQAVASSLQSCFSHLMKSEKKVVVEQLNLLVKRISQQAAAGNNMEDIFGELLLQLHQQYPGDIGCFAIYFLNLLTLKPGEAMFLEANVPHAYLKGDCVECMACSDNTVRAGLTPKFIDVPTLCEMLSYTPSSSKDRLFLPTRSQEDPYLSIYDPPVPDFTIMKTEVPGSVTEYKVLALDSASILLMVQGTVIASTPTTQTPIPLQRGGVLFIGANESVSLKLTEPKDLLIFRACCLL

[9] = target: T3, Apoptotic protease-activating factor 1 (Homo sapiens, UniProt O14727); type: functional
T3 sequence (O14727 whole entry): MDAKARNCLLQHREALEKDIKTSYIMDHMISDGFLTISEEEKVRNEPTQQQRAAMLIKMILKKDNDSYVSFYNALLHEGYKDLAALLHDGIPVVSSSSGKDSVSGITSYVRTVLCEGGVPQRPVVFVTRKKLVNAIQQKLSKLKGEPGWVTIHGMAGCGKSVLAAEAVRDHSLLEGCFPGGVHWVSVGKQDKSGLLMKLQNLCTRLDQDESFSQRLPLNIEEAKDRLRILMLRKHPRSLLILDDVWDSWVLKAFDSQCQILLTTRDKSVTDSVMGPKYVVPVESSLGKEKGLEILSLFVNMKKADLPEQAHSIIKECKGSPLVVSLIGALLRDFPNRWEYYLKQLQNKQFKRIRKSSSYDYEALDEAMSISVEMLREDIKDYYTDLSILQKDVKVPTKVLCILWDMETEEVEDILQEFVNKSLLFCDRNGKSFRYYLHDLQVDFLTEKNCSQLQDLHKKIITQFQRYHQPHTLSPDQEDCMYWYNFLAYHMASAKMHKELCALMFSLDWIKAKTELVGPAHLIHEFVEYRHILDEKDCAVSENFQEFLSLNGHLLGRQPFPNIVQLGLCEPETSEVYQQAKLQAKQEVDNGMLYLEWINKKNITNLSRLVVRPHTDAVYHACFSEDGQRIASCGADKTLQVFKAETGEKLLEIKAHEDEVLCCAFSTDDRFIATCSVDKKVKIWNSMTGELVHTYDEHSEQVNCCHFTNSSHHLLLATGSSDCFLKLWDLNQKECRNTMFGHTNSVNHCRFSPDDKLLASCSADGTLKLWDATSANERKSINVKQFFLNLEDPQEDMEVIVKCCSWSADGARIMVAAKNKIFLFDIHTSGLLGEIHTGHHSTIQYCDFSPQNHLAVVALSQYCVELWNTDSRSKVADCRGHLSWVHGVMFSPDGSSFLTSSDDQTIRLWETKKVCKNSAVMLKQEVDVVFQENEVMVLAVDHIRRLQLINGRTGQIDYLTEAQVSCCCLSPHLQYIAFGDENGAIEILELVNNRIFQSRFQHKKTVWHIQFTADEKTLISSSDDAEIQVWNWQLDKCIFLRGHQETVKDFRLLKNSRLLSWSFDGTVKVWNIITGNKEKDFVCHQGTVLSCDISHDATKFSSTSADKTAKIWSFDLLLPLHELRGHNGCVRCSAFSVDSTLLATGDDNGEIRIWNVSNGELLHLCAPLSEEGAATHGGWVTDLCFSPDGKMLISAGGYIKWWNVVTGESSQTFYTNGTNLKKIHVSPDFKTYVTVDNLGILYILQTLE

Streptococcus = experiment: Group A Streptococcus viability loss, dose response, counter-screen for streptokinase expression inhibitor project, luminescence, BacTiterGlo (AID 1915); type: functional, organism-based;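 further: potency for reduction of bacterial viability or growth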
[10] = tested on: Streptococcus sp. 'group A'; experiment: growth inhibition of control SK(-) GAS strain, dose response, counter-screen for streptokinase expression inhibitor project, luminescence, kanamycin, BacTiterGlo, confirmation (AID 1900); type: functional, organism-based
[11] = inhibitors of intracellular T. cruzi replication, confirmation, NIH3T3 host cells, beta-gal luminescence (AID 2044); type: functional, cell-based;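 further: intracellular parasites grown in NIH/3T3 mouse fibroblasts as host cells; luminescent beta-galactosidase reporter signal from transgenic T. cruzi replicating inside host cells; inhibitors lower the luminescence signal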
[12] = cytotoxicity toward NIH3T3 fibroblasts, dose response, counter-screen, cell-based, ATP luminescence, mouse fibroblasts (AID 2010); type: functional;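 further: cells exposed to compound for about 90 hours before reading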
[13] = target: Voltage-gated inwardly rectifying potassium channel KCNH2 (Homo sapiens, UniProt Q12809); experiment: hERG protection from proarrhythmic block, potency, dose response, cell-based, thallium flux (AID 2121); type: ADME
[14] = THP-1 cell cytotoxicity, dose response, cytotoxicity control for Vif-APOBEC3G degradation inhibitor project, THP-1 cells (AID 1117359); type: functional; conditions: Human immunodeficiency virus 1, THP-1
[15] = target: T2, Mannose-6-phosphate isomerase; experiment: inhibitors of human PMI, primary screen, biochemical, fluorescence intensity, coupled assay (AID 1209)

Sphingosine 1-phosphate receptor 2, sequence (O95136 whole entry): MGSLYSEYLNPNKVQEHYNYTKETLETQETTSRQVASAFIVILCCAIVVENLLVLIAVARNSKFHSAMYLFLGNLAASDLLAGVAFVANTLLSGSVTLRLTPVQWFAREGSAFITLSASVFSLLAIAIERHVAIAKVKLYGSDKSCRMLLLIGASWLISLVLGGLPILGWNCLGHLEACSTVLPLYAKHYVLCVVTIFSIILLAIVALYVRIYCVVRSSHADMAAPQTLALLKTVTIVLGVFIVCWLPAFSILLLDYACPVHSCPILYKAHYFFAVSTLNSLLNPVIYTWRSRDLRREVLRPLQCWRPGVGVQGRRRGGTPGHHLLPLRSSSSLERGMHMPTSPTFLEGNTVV
E3 ubiquitin-protein ligase Mdm2, sequence (Q00987 whole entry): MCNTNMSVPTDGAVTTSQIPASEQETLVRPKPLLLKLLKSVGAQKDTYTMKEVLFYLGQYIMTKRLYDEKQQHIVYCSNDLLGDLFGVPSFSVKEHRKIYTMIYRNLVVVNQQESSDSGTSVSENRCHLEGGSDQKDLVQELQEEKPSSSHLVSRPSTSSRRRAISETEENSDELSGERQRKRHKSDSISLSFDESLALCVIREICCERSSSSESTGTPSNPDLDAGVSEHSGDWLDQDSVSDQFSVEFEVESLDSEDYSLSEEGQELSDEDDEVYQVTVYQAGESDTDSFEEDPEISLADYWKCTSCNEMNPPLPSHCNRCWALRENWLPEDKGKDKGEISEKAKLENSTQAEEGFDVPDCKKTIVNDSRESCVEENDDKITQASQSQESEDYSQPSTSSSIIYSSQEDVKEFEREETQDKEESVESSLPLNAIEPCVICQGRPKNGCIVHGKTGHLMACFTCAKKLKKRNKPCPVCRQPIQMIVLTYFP
Voltage-gated inwardly rectifying potassium channel KCNH2, sequence (Q12809 whole entry): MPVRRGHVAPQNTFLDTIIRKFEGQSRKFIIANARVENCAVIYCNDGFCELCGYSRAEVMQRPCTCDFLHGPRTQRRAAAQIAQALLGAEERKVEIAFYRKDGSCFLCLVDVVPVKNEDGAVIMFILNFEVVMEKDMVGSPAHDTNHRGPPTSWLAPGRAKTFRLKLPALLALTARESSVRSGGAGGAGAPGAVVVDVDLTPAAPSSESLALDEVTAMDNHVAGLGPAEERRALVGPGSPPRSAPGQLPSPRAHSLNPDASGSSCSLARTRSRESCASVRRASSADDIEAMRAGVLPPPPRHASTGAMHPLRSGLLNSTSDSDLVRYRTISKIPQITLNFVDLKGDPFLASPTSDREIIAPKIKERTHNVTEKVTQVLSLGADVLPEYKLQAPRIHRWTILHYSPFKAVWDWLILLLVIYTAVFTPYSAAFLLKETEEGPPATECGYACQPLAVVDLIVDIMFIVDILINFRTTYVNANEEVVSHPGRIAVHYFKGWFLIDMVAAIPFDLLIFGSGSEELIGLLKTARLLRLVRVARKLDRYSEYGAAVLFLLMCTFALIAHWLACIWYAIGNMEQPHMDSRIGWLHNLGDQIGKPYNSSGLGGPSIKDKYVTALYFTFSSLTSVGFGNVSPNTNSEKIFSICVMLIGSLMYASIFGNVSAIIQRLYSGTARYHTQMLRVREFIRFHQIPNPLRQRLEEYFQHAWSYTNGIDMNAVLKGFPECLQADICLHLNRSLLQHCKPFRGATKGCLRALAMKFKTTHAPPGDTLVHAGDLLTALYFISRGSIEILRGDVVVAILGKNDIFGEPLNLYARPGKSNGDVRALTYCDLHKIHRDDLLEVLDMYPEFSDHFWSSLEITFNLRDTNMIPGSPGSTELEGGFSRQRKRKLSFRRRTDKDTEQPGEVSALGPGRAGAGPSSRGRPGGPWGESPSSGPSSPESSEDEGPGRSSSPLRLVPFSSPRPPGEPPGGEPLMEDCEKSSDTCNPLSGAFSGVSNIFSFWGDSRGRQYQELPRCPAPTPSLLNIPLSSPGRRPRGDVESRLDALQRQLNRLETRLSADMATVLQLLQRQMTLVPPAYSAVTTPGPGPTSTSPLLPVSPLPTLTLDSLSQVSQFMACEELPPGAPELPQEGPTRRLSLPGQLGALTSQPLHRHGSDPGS

Q: For `C/C(=N/Nc1ccc(F)cc1)c1ccc(Cl)s1`, which EC50 [1] is on record?
A: 4.71 µM (active)

Q: Which IC50 [2] does the source give for `FC(F)(F)c1cnc2c(-c3cccs3)c(-c3nc[nH]n3)sc2c1` here?
A: 13.9 µM (not active)

Q: For `Cc1nc(SCc2ccc(F)cc2)c([N+](=O)[O-])[nH]1`, which EC50 [3] is on record?
A: 7.19 µM (not active)

Q: With `Cc1cc(NC(=O)c2noc3c2CCCCC3)no1` as the compound, how does the EC50 [4] read?
A: < 0.1 µM (inconclusive)

Q: And the EC50 (H4)?
A: 32.2 µM (active)

Q: And the EC50 [5]?
A: 0.648 µM (active)

Q: What about the EC50 [6] of the same compound?
A: 5.07 µM (active)

Q: And the EC50 [7]?
A: 2.21 µM (active)

Q: For `CCN1C(=O)c2cccc3c(N)ccc1c23`, which IC50 [8] is on record?
A: > 50 µM (not active)

Q: What about the IC50 [9] of the same compound?
A: 44 µM (active)

Q: What does the source list for `Cn1c(-c2c(N)n(C3CCCC3)c3nc4ccccc4nc23)nc2ccccc21`?
A: EC50 (Streptococcus): 2.96 µM (active); IC50 [2]: 5.09 µM (active); EC50 [10]: 0.391 µM (active); EC50 [11]: 0.905 µM (active); EC50 [12]: > 30 µM (not active)

Q: For `CCC(=O)NC(=S)Nc1ccc(NC(=O)c2ccco2)c(Cl)c1`, which EC50 [1] is on record?
A: 4.47 µM (active)

Q: Which EC50 [13] does the source give for `O=C(NC(=S)Nc1cc(C(F)(F)F)ccc1Cl)c1ccccc1` here?
A: 0.24 µM (active)

Q: For `CC(C)NC[C@@H](O)c1ccc(O)c(O)c1`, which CC50 [14] is on record?
A: > 40 µM (active)

Q: What about the IC50 [8] of the same compound?
A: > 50 µM (not active)

Q: And the IC50 [15]?
A: > 50 µM (not active)
